According to patent JPH09183729A, “凍結乾燥ウラシルを含有する抗腫瘍医薬組成物” (priority 1995, dated 1997):
In brackets after ≈: the same amount, converted by molar mass.

Assays:
[1] = FT compared with 5-FU; UFT compared with 5-FU, FT and other antitumour drugs; cited from earlier work
physchem = settings: water, saturated solution concentration in water
[2] = cited from earlier work

solubility (physchem)	Compound	toxicity / side effects [1]	solubility in water ([2]; 25℃ water, Merck Index)	solubility in alcohol and ether ([2]; alcohol and ether)	solubility in cold water ([2]; cold water)
–	O=c1[nH]cc(F)c(=O)[nH]1 [5-FU, 5-fluorouracil]	骨髄機能抑制などの重篤な副作用があり	–	–	–
~14.7 mg/mL (≈ 131 mM)	O=c1cc[nH]c(=O)[nH]1 [ウラシル]	–	0.358 g/100g	難溶	わずかに溶け
